Test results taken from patent US10624893B2 (priority 2016, dated 2020).
Converted amounts (≈) assume the structure as drawn. Like-named read-outs stand apart in the source and are kept apart here.

System: M. tuberculosis drug resistant strains
Test: microbe, parasite or virus in culture
Assay type: cell-based
Settings: Mycobacterium tuberculosis, cholesterol medium

With Cc1cccc(OC2CCN(Cc3cc(=O)[nH]c(=O)[nH]3)CC2)c1C [Test Compound, 6-((4-(2,3-dimethylphenoxy)piperidin-1-yl)methyl)pyrimidine-2,4(1H,3H)-dione] the MIC (ERDMAN, strain Erdman, DS, read-out: MIC 1) was 0.78 µM (≈ 0.257 µg/mL), the MIC (ERDMAN, strain Erdman, DS, read-out: MIC 2) was 0.6 µM (≈ 0.198 µg/mL) and the MIC (H37RV, strain H37Rv, DS, read-out: MIC 2) was 0.39 µM (≈ 0.128 µg/mL). It also gave an MIC ([…], read-out: MIC 2) of 0.6 µM (≈ 0.198 µg/mL), an MIC (strain CDC1551, DS, read-out: MIC 1) of 0.78 µM (≈ 0.257 µg/mL) and an MIC (strain CDC1551, DS, read-out: MIC 2) of 0.39 µM (≈ 0.128 µg/mL). It also gave an MIC (strain HN878, DS, read-out: MIC 1) of 0.78 µM (≈ 0.257 µg/mL), an MIC (strain HN878, DS, read-out: MIC 2) of 0.6 µM (≈ 0.198 µg/mL) and an MIC (strain K03b00DS, DS, read-out: MIC 1) of 0.3 µM (≈ 0.0988 µg/mL). It also gave an MIC (strain K03b00DS, DS, read-out: MIC 2) of 0.2 µM (≈ 0.0659 µg/mL), an MIC (strain K04b00DS, DS, read-out: MIC 1) of 0.39 µM (≈ 0.128 µg/mL) and an MIC (strain K07b00DS, DS, read-out: MIC 1) of 0.6 µM (≈ 0.198 µg/mL). The MIC (strain K07b00DS, DS, read-out: MIC 2) was 0.39 µM (≈ 0.128 µg/mL), the MIC (strain K08b00DS, DS, read-out: MIC 1) was 0.6 µM (≈ 0.198 µg/mL) and the MIC (strain K08b00DS, DS, read-out: MIC 2) was 0.39 µM (≈ 0.128 µg/mL). For the same compound, the MIC (strain K11b00DS, DS, read-out: MIC 2) was 0.78 µM (≈ 0.257 µg/mL), the MIC (strain K12b00DS, DS, read-out: MIC 1) was 0.2 µM (≈ 0.0659 µg/mL) and the MIC (strain K12b00DS, DS, read-out: MIC 2) was 0.6 µM (≈ 0.198 µg/mL). It also gave an MIC (strain K13b00DS, DS, read-out: MIC 1) of 0.78 µM (≈ 0.257 µg/mL), an MIC (strain K13b00DS, DS, read-out: MIC 2) of 0.6 µM (≈ 0.198 µg/mL) and an MIC (strain K14b00DS, DS, read-out: MIC 2) of 0.6 µM (≈ 0.198 µg/mL). For the same compound, the MIC (strain K16b00DS, DS, read-out: MIC 1) was 0.39 µM (≈ 0.128 µg/mL), the MIC (strain K16b00DS, DS, read-out: MIC 2) was 0.2 µM (≈ 0.0659 µg/mL) and the MIC (strain K35b00DS, DS, read-out: MIC 1) was 0.6 µM (≈ 0.198 µg/mL). For the same compound, the MIC (strain K35b00DS, DS, read-out: MIC 2) was 0.39 µM (≈ 0.128 µg/mL), the MIC (strain NIH_G1DS, DS, read-out: MIC 1) was 0.78 µM (≈ 0.257 µg/mL) and the MIC (strain NIH_G1DS, DS, read-out: MIC 2) was 0.39 µM (≈ 0.128 µg/mL). For the same compound, the MIC (strain NIH_G12, read-out: MIC 1) was 0.78 µM (≈ 0.257 µg/mL) and the MIC (strain NIH_G13, read-out: MIC 1) was 0.6 µM (≈ 0.198 µg/mL).
